In USRE47193E1, “Selectively substituted quinoline compounds” (EISAI R&D MANAGEMENT CO., LTD., priority 2013, dated 2019):

Biological target: T1, mouse TLR7 (Mus musculus, UniProt P58681)
T1 sequence (P58681 27-1050): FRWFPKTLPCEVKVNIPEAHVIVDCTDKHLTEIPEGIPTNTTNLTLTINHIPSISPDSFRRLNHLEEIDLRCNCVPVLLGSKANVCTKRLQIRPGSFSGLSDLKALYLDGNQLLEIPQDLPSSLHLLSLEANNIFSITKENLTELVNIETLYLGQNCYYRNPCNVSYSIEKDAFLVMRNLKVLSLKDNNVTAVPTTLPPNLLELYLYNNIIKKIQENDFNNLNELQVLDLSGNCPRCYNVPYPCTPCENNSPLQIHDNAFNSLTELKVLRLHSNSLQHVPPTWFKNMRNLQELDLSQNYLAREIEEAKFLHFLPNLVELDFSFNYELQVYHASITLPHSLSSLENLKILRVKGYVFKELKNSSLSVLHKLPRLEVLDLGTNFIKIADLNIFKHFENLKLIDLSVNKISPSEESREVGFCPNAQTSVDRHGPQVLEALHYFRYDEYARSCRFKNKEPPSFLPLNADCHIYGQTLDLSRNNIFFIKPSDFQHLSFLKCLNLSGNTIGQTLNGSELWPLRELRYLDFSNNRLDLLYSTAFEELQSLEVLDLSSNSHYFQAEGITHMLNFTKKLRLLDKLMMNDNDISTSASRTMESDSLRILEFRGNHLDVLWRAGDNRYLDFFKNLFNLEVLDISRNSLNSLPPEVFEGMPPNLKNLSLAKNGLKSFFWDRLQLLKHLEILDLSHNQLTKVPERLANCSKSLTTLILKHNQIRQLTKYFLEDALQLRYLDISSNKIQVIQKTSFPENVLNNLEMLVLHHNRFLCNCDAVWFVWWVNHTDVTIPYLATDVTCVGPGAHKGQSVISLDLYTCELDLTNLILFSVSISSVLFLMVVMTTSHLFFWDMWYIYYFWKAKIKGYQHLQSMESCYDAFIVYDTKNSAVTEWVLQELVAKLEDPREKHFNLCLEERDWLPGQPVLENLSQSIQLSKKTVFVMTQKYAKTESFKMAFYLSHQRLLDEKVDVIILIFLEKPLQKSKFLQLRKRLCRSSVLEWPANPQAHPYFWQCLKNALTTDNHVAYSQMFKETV
Experiment: Short-term in vivo (STIV) assay: oral dosing, R848 s.c., plasma IL-6
Design: female BALB/c mice (Jackson Labs, Bar Harbor, Me.) were dosed by oral gavage; tissue Jackson Labs; host or cells: living female BALB/c mice; plasma IL-6 after s.c. R848
Method: Figure Legend: Female BALB/c mice were dosed by oral gavage with Vehicle alone (0.5% aqueous methyl-cellulose) or compound formulated in Vehicle at 33 mg/kg, 100 mg/kg or 300 mg/kg. […] (FIG. 1A).
Short-term in vivo (STIV) assay: To assess compound potency in vivo against mouse TLR7, a short-term in vivo (STIV) assay was utilized. Briefly, mice were orally dosed with compounds and at various time points afterwards were injected subcutaneously with agonist R848 to stimulate TLR7. The plasma IL-6 level following R848 stimulation was then measured by ELISA to assess compound potency and duration-of-action.
Short-term in vivo (STIV) assay. Six to eight week old female BALB/c mice (Jackson Labs, Bar Harbor, Me.) were dosed by oral gavage in 200 ul volume with antagonist compounds formulated in 0.5% aqueous methyl-cellulose (Sigma, St. Louis, Mo.). At various time points afterwards, mice were injected subcutaneously (s.c.) in 100 ul volume with 15 ug R848 (Resiquimod; GLSynthesis, Worcester, Mass.) to stimulate TLR7.

SMILES	% Suppression vs. Vehicle (3 h, 33 mg/kg) [%]	% Suppression vs. Vehicle (3 h, 100 mg/kg) [%]	% Suppression vs. Vehicle (3 h after oral dose, 11 mg/kg) [%]	% Suppression vs. Vehicle (6 h, 11 mg/kg) [%]	% Suppression vs. Vehicle (6 h, 33 mg/kg) [%]	% Suppression vs. Vehicle (6 h, 100 mg/kg) [%]	% Suppression vs. Vehicle (19 h, 11 mg/kg) [%]	% Suppression vs. Vehicle (19 h, 33 mg/kg) [%]	% Suppression vs. Vehicle (19 h, 100 mg/kg) [%]	% Suppression vs. Vehicle (3 h, 300 mg/kg) [%]	% Suppression vs. Vehicle (6 h, 300 mg/kg) [%]	% Suppression vs. Vehicle (19 h, 300 mg/kg) [%]	% Suppression vs. Vehicle (13 h, 33 mg/kg) [%]	% Suppression vs. Vehicle (13 h, 100 mg/kg) [%]
C[C@@H]1CN(c2ccc(C#N)c3ncccc23)C[C@H](CNC2CCCCC2)O1 [ER-886611]	90	100	53	0	90	100	19	0	100					
C[C@@H]1CN(c2ccc(C#N)c3ncccc23)C[C@H](CNc2ccccn2)O1 [ER-886788]	0	0			0	27		0	17	24	26	2		
COc1cccnc1NC[C@H]1CN(c2ccc(C#N)c3ncccc23)C[C@@H](C)O1 [ER-886948]	46	89			35	44		0	5	100	81	49		
C[C@@H]1CN(c2ccc(C#N)c3ncccc23)C[C@H](CN2CCC(C(N)=O)CC2)O1 [ER-888320]		100			78	94							9	31
C[C@@H]1CN(c2ccc(C#N)c3ncccc23)C[C@H](CN2CCC(N3CCN(C)CC3)CC2)O1 [ER-890223]	93	99			82	99			88					
CC(C)C(=O)NC1CN(C[C@H]2CN(c3ccc(C#N)c4ncccc34)C[C@@H](C)O2)C1 [ER-894206]	96				85	98							42	77
C[C@@H]1CN(c2ccc(C#N)c3ncccc23)C[C@H](C(=O)NC2(C)CCNCC2)O1 [ER-899718]						74								51
C[C@@H]1CN(c2ccc(C#N)c3ncccc23)C[C@H](C(=O)NC2(C)CCN(C)CC2)O1 [ER-899835]						99								79
